The test addresses Ubiquitin carboxyl-terminal hydrolase 8 (Homo sapiens) (UniProt P40818). Kind of test: Ubiquitin-specific protease 8 inhibitors, concentration-effect, biochemical, validation of initial actives (AID 1645862).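 Also: potency reflects inhibition of USP8 cleavage of a ubiquitin rhodamine substrate.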 To be noted: recombinant USP8 deubiquitinase activity assay.

The term IC50 denotes the concentration at which inhibition is half-maximal.

Structures are written as SMILES. Activity calls are given as the source filed them. No rule for the calls is given here. Some results are limits rather than exact numbers.

Ubiquitin carboxyl-terminal hydrolase 8 (Homo sapiens), sequence (P40818 whole entry, looked up): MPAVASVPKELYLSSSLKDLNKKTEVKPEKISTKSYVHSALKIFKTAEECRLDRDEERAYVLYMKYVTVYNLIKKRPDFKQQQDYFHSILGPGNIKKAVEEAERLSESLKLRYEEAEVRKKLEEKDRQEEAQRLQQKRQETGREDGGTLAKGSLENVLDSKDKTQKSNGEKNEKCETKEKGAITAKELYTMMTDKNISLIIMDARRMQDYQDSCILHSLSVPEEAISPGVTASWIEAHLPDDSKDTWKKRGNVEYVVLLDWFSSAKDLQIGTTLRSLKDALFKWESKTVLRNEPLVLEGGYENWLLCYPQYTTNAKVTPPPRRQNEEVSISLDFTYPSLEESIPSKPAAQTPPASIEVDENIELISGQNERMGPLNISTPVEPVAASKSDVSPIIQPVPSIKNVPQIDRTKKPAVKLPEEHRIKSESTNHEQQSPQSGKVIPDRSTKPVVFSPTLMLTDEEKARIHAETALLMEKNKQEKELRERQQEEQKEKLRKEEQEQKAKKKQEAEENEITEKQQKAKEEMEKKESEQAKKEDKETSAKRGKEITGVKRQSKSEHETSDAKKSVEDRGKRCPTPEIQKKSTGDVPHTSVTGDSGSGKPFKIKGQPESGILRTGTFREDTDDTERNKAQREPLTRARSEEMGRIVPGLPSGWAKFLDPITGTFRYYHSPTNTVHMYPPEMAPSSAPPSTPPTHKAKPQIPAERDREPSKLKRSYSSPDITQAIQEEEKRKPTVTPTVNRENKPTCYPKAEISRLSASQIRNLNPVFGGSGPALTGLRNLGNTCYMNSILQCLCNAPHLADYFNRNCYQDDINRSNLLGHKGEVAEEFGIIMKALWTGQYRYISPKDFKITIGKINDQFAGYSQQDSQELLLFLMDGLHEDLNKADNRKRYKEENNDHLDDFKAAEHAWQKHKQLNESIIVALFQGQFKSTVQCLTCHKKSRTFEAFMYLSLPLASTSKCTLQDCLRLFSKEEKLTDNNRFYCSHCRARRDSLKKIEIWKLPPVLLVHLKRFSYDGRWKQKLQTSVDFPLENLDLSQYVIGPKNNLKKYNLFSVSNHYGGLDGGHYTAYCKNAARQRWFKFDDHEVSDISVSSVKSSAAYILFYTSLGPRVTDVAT

Turning to `CCOc1ccc(-c2ccc3nnc(SCC(=O)Nc4ccc(F)cc4)n3n2)cc1`, the IC50 was > 40 µM (inactive). Turning to `COc1ccc(NC(=O)c2nnc(C(=O)NCc3ccccc3F)s2)cc1`, the IC50 was > 40 µM (inactive). For the compound `COC(=O)c1ccc(NC(=O)c2ccc(COc3cc(Cl)ccc3Cl)cc2)cc1`, the IC50 was > 40 µM (inactive). On to `Cc1c(-c2nc(-c3ccccc3Cl)no2)nnn1-c1cccc(F)c1`, for which the IC50 is > 40 µM (inactive). For the compound `CCOC(=O)c1cc2c(ccn2-c2ccc(F)cc2)n1CC(=O)Nc1ccc2c(c1)OCCO2`, the IC50 is > 40 µM (inactive). As for `COc1cccc(CNC(=O)c2nnn(CC(=O)Nc3cc(C)ccc3C)c2N)c1`, the IC50 is > 40 µM (inactive). Turning to `CCCCCCCCCC(CCCCCCCCCC(=O)O)O[C@H]1O[C@@H](COC(C)=O)[C@H](O)[C@@H](OC(=O)CC(=O)O)[C@H]1O` (stereo not given in full), the IC50 is > 40 µM (inactive). As to `O=C(CN(CC(=O)NCc1ccccc1Cl)c1nc2ccccc2s1)NCc1ccccc1Cl`, the IC50 was > 40 µM (inactive). Regarding `CN(C)c1cccc(-c2nnc(SCC(=O)Nc3ccc(F)cc3)n2-c2ccccc2)c1`, the IC50 was > 40 µM (inactive). Take `O=C(c1ccncc1)N1CCN(CC2CC=CCC2)CC1` (stereo not given): the IC50 was > 40 µM (inactive). Turning to `O=C(c1ccccn1)N1CCC2(CC1)CC1(CO2)Nc2ccccc2-n2cccc21` (stereo not given), the IC50 is 23.1 µM.

As to `Cc1cc(C(F)(F)F)n2nc(C3CCN(C(=O)c4cnn(C)c4C)C3)cc2n1` (stereo not given), the IC50 was 23.8 µM. Next, `COc1ccc(NC(=O)[C@H](C)NC(=O)c2cc3c(OC)cccc3[nH]2)cc1Cl`: > 40 µM (inactive).

For the compound `CCOc1ccc(-c2nnc(-c3cnc4onc(C5CCCC5)c4c3)o2)cc1`, the IC50 was > 40 µM (inactive).

On to `COc1c(O)cc(CC(=O)O)c(C(C)=O)c1O`, for which the IC50 is 4.69 µM. For `O=C(Nc1ccccc1)[C@@H]1[C@@H]2C(=O)N(c3ccc([N+](=O)[O-])cc3)C(=O)[C@@H]2[C@H]2c3ccccc3C=CN12`, the IC50 was 34 µM. For `Cc1ccc(C(=O)c2cn(CC(=O)Nc3ccccc3)c3ccc(C)cc3c2=O)cc1` the value was > 40 µM (inactive); for `COc1ccc(/C=C/C(=O)Nc2nc3n(n2)C(c2ccccc2)CC(=O)N3)cc1` (stereo not given), > 40 µM (inactive). Turning to `Cc1cc(=O)n2c3c(c4c(cc13)c(CO)cc(=O)n4C)OC2`, the IC50 was 22.6 µM. For `O=C(Oc1ccc2cc(Br)ccc2c1)c1ccncc1` the value was > 40 µM (inactive); for `CCCn1cc(C(=O)N2CCC3(CC2)CC2(CO3)Nc3ccccc3-n3cccc32)c(C)n1` (stereo not given), 37.2 µM; for `Cc1cc(C)cc(NC(=O)C2CC(=O)Nc3nc4ccccc4n32)c1` (stereo not given), > 40 µM (inactive). Turning to `CSc1ncccc1C(=O)NC1(O)C(=O)c2ccccc2C1=O`, the IC50 is 5.16 µM. Next, `COc1ccc(Cl)cc1NC(=O)c1cc(-c2ccccn2)n[nH]1`: 10.5 µM; `Cc1cccn2c(=O)c3cc(C#N)c(=O)n(-c4cccc(C(F)(F)F)c4)c3nc12`: > 40 µM (inactive).

Regarding `O=C(Nc1cccc(-c2nc3cnccc3o2)c1)c1ccc(Br)o1`, the IC50 was > 40 µM (inactive). For `Cc1cc(O)c2c3c(c(O)cc2c1)C(=O)c1c(O)cccc1C3=O` the value was 1.46 µM; for `CCc1ccccc1NC(=O)Cn1c(=O)n(CC(=O)NCc2ccccc2Cl)c(=O)c2sccc21`, > 40 µM (inactive); for `O=C(Nc1ccc(-c2cn3ccsc3n2)cc1)c1ccc(Cl)c([N+](=O)[O-])c1`, 21.4 µM. In the case of `COc1ccc(NC(=O)Cn2c(=O)n(CCC(=O)NCc3ccccc3)c(=O)c3sccc32)cc1Cl`, the IC50 is > 40 µM (inactive).

On to `Cc1c(C)n(-c2ccccc2)c2ncn(CC(=O)NCc3cccc(F)c3)c(=O)c12`, for which the IC50 was > 40 µM (inactive). On to `COc1cccc(C2c3[nH]c4ccccc4c3C[C@@H]3C(=O)N(CC(O)c4ccccc4)CC(=O)N23)c1` (stereo not given in full), for which the IC50 was > 40 µM (inactive).

With `Cc1noc(C)c1COc1cccc(C(=O)Nc2cc(Cl)ccc2-n2cncn2)c1`, the IC50 was > 40 µM (inactive). With `Cc1ccc2cc(-c3noc(CCC(=O)NC4CCCC4)n3)c(=O)[nH]c2c1`, the IC50 was > 40 µM (inactive). As to `Cc1ccc(S(=O)(=O)N2CCC3(CC2)OC(=O)Nc2ccccc23)cc1`, the IC50 was > 40 µM (inactive). In the case of `COc1ccc(C2(c3nnc(C(C)Oc4ccc(F)cc4)o3)CCOCC2)cc1` (stereo not given), the IC50 is > 40 µM (inactive). As for `C=C/C(C)=C/[C@@]1(C)SC(=O)C(C)=C1O`, the IC50 is 14.5 µM. Next, `COc1ccc(-c2c(NC(=O)C3COc4ccccc4O3)n[nH]c2C)cc1OC` (stereo not given): 31.3 µM; `O=C(NCc1ccc(F)cc1)c1cccc(Nc2nc3ccccc3n3cnnc23)c1`: > 40 µM (inactive). As for `CSc1cccc(NC(=O)c2cc(-c3cccnc3)n[nH]2)c1`, the IC50 is > 40 µM (inactive). `O=C(COc1ccc(N2CC(C(=O)NCc3ccccc3)CC2=O)cc1)Nc1ccccc1Cl` (stereo not given): the IC50 was > 40 µM (inactive). In the case of `Nc1ncc(-c2ccc(F)cc2)c(C2CCCN(C(=O)c3ccn[nH]3)C2)n1` (stereo not given), the IC50 is > 40 µM (inactive). Take `Cc1ccccc1NC(=O)Cc1csc2nc(-c3ccc(F)cc3)cn12`: the IC50 was > 40 µM (inactive). For `CSc1ccc(CNC(=O)Cn2nc(C)c3c(C)n(-c4ccccc4)nc3c2=O)cc1`, the IC50 is 19.5 µM.

For `Cc1ccc2[nH]c(=O)c(CN(CC3COCCO3)S(=O)(=O)c3ccc(F)cc3)cc2c1` (stereo not given), the IC50 was > 40 µM (inactive). On to `CCOC(=O)C1CCN(C(=O)c2ccc3c(c2)NC(=O)C2CCCN32)CC1` (stereo not given), for which the IC50 is 2.02 µM. Take `Cc1ccc2[nH]c3c(=O)n(Cc4ccc(N(C)C)cc4)cnc3c2c1`: the IC50 was 30.7 µM. In the case of `COc1cccc(C(=O)Nc2nc(-c3nnn(-c4ccc(C)c(F)c4)c3C)ns2)c1`, the IC50 is > 40 µM (inactive). For `O=C(NCCc1ccccc1)c1ccc2c(=O)n(Cc3ccco3)c(=O)n(Cc3cccc([N+](=O)[O-])c3)c2c1` the value was 15.4 µM; for `OC1CCCN(c2ncc(-c3cnccn3)c(-c3cccs3)n2)C1` (stereo not given), > 40 µM (inactive); for `Cc1ccc(S(=O)(=O)Nc2ccccc2C(=O)Nc2nc3ccc(Br)cc3s2)cc1`, 18.9 µM. On to `COc1ccc2c(c1)c(=O)c(S(=O)(=O)c1ccc(F)cc1)cn2Cc1cccc(F)c1`, for which the IC50 was > 40 µM (inactive).

Consider `CSc1nc(N)c2c(n1)N[C@H]1OC[C@H](O)[C@H](O)[C@H]1N2`, for which the IC50 is > 40 µM (inactive).

Regarding `COc1cc2c(c(OCC(=O)Nc3ccc4c(c3)OCCO4)c1)C(=O)O[C@@H](C)CCCC(=O)CCCCC2`, the IC50 was > 40 µM (inactive). For `Cc1ccc(C)c(S(=O)(=O)N2CCN(c3ccc4nnc(-c5ccco5)n4n3)CC2)c1` the value was > 40 µM (inactive); for `COCCCN1CCS(=O)(=O)c2c(Cl)c(F)nc(Oc3ccc(C#N)cc3)c21`, > 40 µM (inactive). Regarding `COc1ccc(N(CC(=O)NC2CCCCC2)C(=O)c2ccc(-c3ccccc3)[nH]2)cc1OC`, the IC50 was > 40 µM (inactive).

`O=C(Cn1c(=O)n(CC2CCC(C(=O)NCCc3ccccc3)CC2)c(=O)c2ccccc21)NCc1ccco1` (stereo not given): the IC50 was > 40 µM (inactive). Turning to `Cc1c(C(=O)Nc2ccc(Oc3ccccc3)cc2)nnn1-c1cccc(Cl)c1`, the IC50 is > 40 µM (inactive). With `O=C(Cn1cnc(-c2noc(-c3ccc(F)cc3)n2)c1)Nc1ccccc1F`, the IC50 is > 40 µM (inactive). In the case of `COc1ccc(CSc2nc3ccncc3n2CC(=O)Nc2ccc(C)cc2C)cc1`, the IC50 is > 40 µM (inactive). Consider `CCc1nc(SCC(=O)Nc2ccc(Cl)c(Cl)c2)c2oc3ccccc3c2n1`, for which the IC50 is > 40 µM (inactive). `COC(=O)c1ccc(C2c3[nH]c4ccccc4c3C[C@@H]3C(=O)N(c4ccc5c(c4)OCCO5)C(=O)N23)cc1` (stereo not given in full): the IC50 is > 40 µM (inactive). As for `NC(=O)C[C@H](NC(=O)[C@H](Cc1ccccc1)n1c(=O)[nH]c2ccccc2c1=O)C(=O)N[C@@H](Cc1ccccc1)C(=O)O`, the IC50 was > 40 µM (inactive). Next, `COc1ccc(NS(=O)(=O)c2cc(NC(=O)CC(=O)c3ccc([N+](=O)[O-])cc3)ccc2Cl)cc1`: > 40 µM (inactive); `COc1cc2c(=O)n(CC3CCCO3)c(=O)n(CC(=O)c3ccc4c(c3)OCO4)c2cc1OC` (stereo not given): > 40 µM (inactive).

For the compound `COc1ccc(COc2ccc3c(C)c(CC(=O)N4CC[C@@]5(O)CCCC[C@H]5C4)c(=O)oc3c2)cc1`, the IC50 is > 40 µM (inactive). Take `N#Cc1ccccc1NC(=O)c1cc2c(s1)-c1ccccc1S(=O)(=O)C2`: the IC50 was > 40 µM (inactive). For `COc1ccccc1CN1CCC(c2cc(=O)[nH]c(-c3cccnc3)n2)CC1`, the IC50 is > 40 µM (inactive). Take `CSc1ccc(CNC(=O)Cn2c(=O)[nH]c3c(-c4ccccc4)c[nH]c3c2=O)cc1`: the IC50 is > 40 µM (inactive). `O=C(/C=C/c1ccc2c(c1)OCO2)Nc1nc2n(n1)C(c1ccccc1)CC(=O)N2` (stereo not given): the IC50 was > 40 µM (inactive).

`Cc1cc(=O)n(CC(=O)Nc2ccccc2C)c(Nc2ccc(F)cc2)n1`: the IC50 was > 40 µM (inactive). As for `CC1Oc2cc3c(-c4c(O)cc(O)c5c(O)c6c(cc45)OC(C)C(C)C6=O)c(O)cc(O)c3c(O)c2C(=O)C1C` (stereo not given), the IC50 was > 40 µM (inactive). As for `Cc1cccc(NC(=O)CSc2nnc(NC(=O)c3ccc4ccccc4c3)s2)c1`, the IC50 was > 40 µM (inactive). Next, `CCCCCCCCCCCCCCCc1cc(O)cc(O)c1C(=O)O`: 30.9 µM; `O=C(O)C1C(C(=O)Nc2ccccc2)C2(c3ccccc3)C(=O)C1(c1ccccc1)C(c1ccccc1)=C2c1ccccc1` (stereo not given): 15.4 µM. Next, `COc1ccc(-n2ccn3c(CCC(=O)Nc4cccc(C)c4)nnc3c2=O)cc1`: > 40 µM (inactive); `Cc1ccc(Nc2nc3c(S(=O)(=O)c4ccccc4)nnn3c3ccccc23)c(C)c1`: > 40 µM (inactive); `Cc1cc(C(=O)N2CCOCC2)c(C)n1-c1ccc(O)cc1`: 22.8 µM.

Turning to `O=C(Nc1ccccc1-c1nc2ccccc2[nH]1)c1sc2ccccc2c1Cl`, the IC50 was 10.5 µM.

These data come from PubChem BioAssay AID1645862 (Buhrlage Lab, Dana-Farber Cancer Institute and Novartis …, 2021).
